Reference: patent US20120164242A1, “NOVEL METHODS FOR MODULATING MELANIN PRODUCTION” (priority 2010, published 2012)

Test system: melanogenesis related genes
Experiment: RT-PCR mRNA level of melanogenesis related genes in B16-F10 cells
Format: cell-based, mouse
Conditions: 100 μM, three days
Description: To determine whether THSG had similar effects as the PMT extract on the induction of melanin related gene expression, B16-F10 cells were cultured in medium containing PMT extract (10 μg/mL), THSG (10 μg/mL), naringenin (100 μM) for three days and RT-PCR was performed to analyze melanin biosynthesis related gene expression using the protocol as described in Example 4 above.

Question: Which “mRNA level of melanogenesis related genes” value does the source give for `O=C1C[C@@H](c2ccc(O)cc2)Oc2cc(O)cc(O)c21` [naringenin] here?
Answer: no increase
